Measurements: article PMC7729733, “Biological Properties of New Chiral 2-Methyl-5,6,7,8-tetrahydroquinolin-8-amine-based Compounds” (Molecules, 2020)

Assays:
[1] = tested on: HT-29 (colorectal adenocarcinoma); experiment: Cell growth assay (Trypan blue), HT-29 cells; type: cell-based, human; settings: 72 h
Procedure: (§1) A2780 (human ovarian carcinoma) and HT-29 (human colorectal adenocarcinoma) were grown in RPMI 1640 (Sigma Chemical Co., St. Louis, MO, USA), and MSTO-211H (human biphasic mesothelioma) were grown in RPMI 1640 (Sigma Chemical Co.) supplemented with 2.38 g/L Hepes, 0.11 g/L pyruvate sodium, and 2.5 g/L glucose. Then, 1.5 g/L NaHCO3, 10% heat-inactivated fetal calf serum (Biowest), 100 U/mL penicillin, 100 μg/mL streptomycin, and 0.25 μg/mL amphotericin B (Sigma Chemical Co.) were added to the media. The cells were cultured at 37 °C in a moist atmosphere of 5% carbon dioxide in air. Cells (2.5–3 × 10^4) were seeded into each well of a 24-well cell culture plate. After incubation for 24 h, various concentrations of the test agents were added to the complete medium and incubated for a further 72 h. A Trypan blue assay was performed to determine cell viability. Cytotoxicity data were expressed as IC50 values, i.e., the concentration of the test compound able to induce a 50% reduction in cell number compared with control cultures.

[2] = tested on: A2780 (ovarian carcinoma); experiment: Cell growth assay (Trypan blue), A2780 cells; type: cell-based, human; settings: 72 h, Trypan blue
Procedure: as §1

[3] = tested on: MSTO-211H (biphasic mesothelioma); experiment: Cell growth assay (Trypan blue), MSTO-211H cells; type: cell-based, human; settings: for IC50: 72 h, Trypan blue
Procedure: as §1

[4] = tested on: CEM (human T-lymphocyte cells); experiment: Cell growth assay, CEM cells; type: cell-based; settings: racemic compounds, 72 h, Coulter counter
Procedure: (§2) HeLa (human cervix carcinoma) and CEM (human T-lymphoblast) were grown in Dulbecco’s modified Eagle’s medium (DMEM; Gibco, Carlsbad, CA, USA), supplemented with 0.01 M Hepes (Gibco) and 1 mM sodium pyruvate (Gibco) in a humidified 5% CO2 incubator at 37 °C. HMEC-1 (human microvascular endothelial cells) was maintained in Dulbecco’s modified Eagle’s medium (DMEM)/low glucose containing glutamine (2 mM). The media were supplemented with 10% fetal bovine serum (FBS, Gibco), penicillin ([…]), streptomycin ([…]), and amphotericin B ([…]). CEM cells were seeded in 96-well plates at 60,000 cells/well in the presence of different concentrations of the compounds, and allowed to proliferate for 72 h. HeLa cells were seeded in 96-well plates at 15,000 cells/well in the presence of different concentrations of the compounds. After 4 days of incubation, the cells were trypsinized and counted. HMEC-1 cells were seeded in 48-well plates at 20,000 cells/well. After 24 h, the compounds were added at different concentrations. The cells were allowed to proliferate for 4 days in the presence of the compounds, trypsinized, and counted. All cells were counted by means of a Coulter counter (Analis, Belgium).

[5] = tested on: HeLa (human cervix carcinoma cells); experiment: Cell growth assay, HeLa cells; type: cell-based; settings: 96 h, racemic compounds, 4 days, Coulter counter
Procedure: as §2

[6] = tested on: HMEC-1 (human dermal microvascular endothelial cells); experiment: Cell growth assay, HMEC-1 cells; type: cell-based; settings: HMEC-1, 96 h, racemic compounds, 4 days, Coulter counter
Procedure: as §2

[7] = target: quinone reductase 2 (QR2); parameters: method as in PMID 22716080, PMID 16765324; settings: read-out: QR2 inhibitory activity IC50; cited from earlier work
[8] = Homo sapiens, HT-29, pure enantiomers
[9] = Homo sapiens, A2780, 72 h, pure enantiomers
[10] = Homo sapiens, MSTO-211H, pure enantiomers
[11] = Homo sapiens, HT-29, racemic compounds
[12] = Homo sapiens, A2780, 72 h, racemic compounds
[13] = Homo sapiens, MSTO-211H, racemic compounds

IC50 [1, 8] [µM] | IC50 [2, 9] [µM] | IC50 [3, 10] [µM] | IC50 [1, 11] [µM] | IC50 [2, 12] [µM] | IC50 [3, 13] [µM] | melting point [°C] | IC50 ([1]; pure enantiomers) [µM] | IC50 ([2]; pure enantiomers) [µM] | IC50 ([3]; pure enantiomers) [µM] | Compound | cytotoxic effect on MSTO-211H (in words) ([3]; pure enantiomers) | IC50 [4] [µM] | IC50 [5] [µM] | IC50 [6] [µM] | IC50 [7] [µM]
> 20 | 15.2 ± 2.3 | > 20 | – | – | – | – | – | – | – | Cc1ccc(O)c(CN[C@@H]2CCCc3ccc(C)nc32)c1 [(R)-2b, 4-methyl-2-(((2-methyl-5,6,7,8-tetrahydroquinolin-8-yl)amino)methyl)phenol] | inactive | – | – | – | –
– | – | – | 70 ± 2 | 13 ± 3 | 31 ± 7 | 101.2 to 102.6 | – | – | – | Cc1ccc2c(n1)C(/N=C/c1ncc[nH]1)CCC2 (racemic) [Compound 5a, (E)-1-(1H-imidazol-2-yl)-N-(2-methyl-5,6,7,8-tetrahydroquinolin-8-yl)methanimine] | – | 43 ± 7 | 37 ± 9 | 57 ± 4 | –
> 20 | 11.7 ± 2 | 14.9 ± 1.4 | – | – | – | – | – | – | – | Cc1ccc2c(n1)[C@H](/N=C/c1ccccn1)CCC2 [(R)-3a, (E)-N-(2-methyl-5,6,7,8-tetrahydroquinolin-8-yl)-1-(pyridin-2-yl)methanimine] | – | – | – | – | –
– | – | – | – | – | – | – | > 20 | 17.2 ± 3 | > 20 | Cc1ccc2c(n1)[C@@H](/N=C/c1ncc[nH]1)CCC2 [(S)-5a, (E)-1-(1H-imidazol-2-yl)-N-(2-methyl-5,6,7,8-tetrahydroquinolin-8-yl)methanimine] | ineffective | – | – | – | –
– | – | – | 42 ± 8 | 11 ± 2 | 14 ± 1 | 103.2 to 104.5 | – | – | – | Cc1ccc2c(n1)C(/N=C/c1cn(C)cn1)CCC2 (centres unmarked) [Compound 4a, (E)-1-(1-methyl-1H-imidazol-4-yl)-N-(2-methyl-5,6,7,8-tetrahydroquinolin-8-yl)methanimine] | – | > 100 | > 100 | > 100 | –
– | – | – | – | – | – | – | > 20 | 11.4 ± 0.4 | 11.8 ± 2.3 | Cc1ccc2c(n1)[C@@H](/N=C/c1ccccn1)CCC2 [(S)-3a, (E)-N-(2-methyl-5,6,7,8-tetrahydroquinolin-8-yl)-1-(pyridin-2-yl)methanimine] | – | – | – | – | –
– | – | – | 42 ± 6 | 16 ± 2 | 30 ± 8 | 102.8 to 104.3 | – | – | – | Cc1ccc2c(n1)C(/N=C/c1ccccn1)CCC2 (racemic) [Compound 3a, (E)-N-(2-methyl-5,6,7,8-tetrahydroquinolin-8-yl)-1-(pyridin-2-yl)methanimine] | – | 33 ± 7 | 34 ± 6 | 77 ± 32 | –
– | – | – | 83 ± 5 | 65 ± 9 | 69 ± 3 | 102.2 to 103.8 | – | – | – | Cc1ccc2c(n1)C(/N=C/c1cccc(C)c1O)CCC2 (centres unmarked) [Compound 1a, (E)-2-methyl-6-(((2-methyl-5,6,7,8-tetrahydroquinolin-8-yl)imino)methyl)phenol] | – | > 100 | > 100 | > 100 | –
– | – | – | 73 ± 6 | 38 ± 7 | 44 ± 5 | 86.7 to 88.1 | – | – | – | Cc1ccc2c(n1)C(NCc1ncc[nH]1)CCC2 (centres unmarked) [Compound 5b, N-((1H-imidazol-2-yl)methyl)-2-methyl-5,6,7,8-tetrahydroquinolin-8-amine] | – | 51 ± 13 | 71 ± 3 | 53 | –
– | – | – | 74 ± 3 | 36 ± 4 | 77 ± 7 | 94.3 to 95.5 | – | – | – | Cc1ccc2c(n1)C(NCc1cc3c4c(c1O)CCCN4CCC3)CCC2 (centres unmarked) [Compound 6b, 9-(((2-methyl-5,6,7,8-tetrahydroquinolin-8-yl)amino)methyl)-2,3,6,7-tetrahydro-1H,5H-pyrido[3 ,2,1-ij]quinolin-8-ol] | – | 77 ± 32 | > 100 | 81 ± 26 | –
– | – | – | 57 ± 6 | 42 ± 5 | 28 ± 4 | 89.2 to 91.1 | – | – | – | Cc1ccc2c(n1)C(NCc1cccc(C)c1O)CCC2 (centres unmarked) [Compound 1b, 2-methyl-6-(((2-methyl-5,6,7,8-tetrahydroquinolin-8-yl)amino)methyl)phenol] | – | 66 ± 47 | 93 ± 10 | 63 ± 2 | –
– | – | – | – | – | – | – | – | – | – | CNc1c(Cl)c(N)c2c3c(cc(C(N)=O)nc13)C(=O)N2C [Compound 5] | – | – | – | – | 0.0041
– | – | – | 46 ± 7 | 36 ± 4 | 25 ± 11 | 104.2 to 105.8 | – | – | – | Cc1ccc2c(n1)C(/N=C/c1cc3c4c(c1O)CCCN4CCC3)CCC2 (centres unmarked) [Compound 6a, (E)-9-(((2-methyl-5,6,7,8-tetrahydroquinolin-8-yl)imino)methyl)-2,3,6,7-tetrahydro-1H,5H-pyrido [3,2,1-ij]quinolin-8-ol] | – | 64 ± 32 | > 100 | 82 ± 4 | –
– | – | – | > 100 | > 100 | 95 ± 5 | 101.8 to 103.4 | – | – | – | Cc1ccc(O)c(/C=N/C2CCCc3ccc(C)nc32)c1 (centres unmarked) [Compound 2a, (E)-4-methyl-2-(((2-methyl-5,6,7,8-tetrahydroquinolin-8-yl)imino)methyl)phenol] | – | > 100 | > 100 | > 100 | –
– | – | – | 42 ± 6 | 11 ± 3 | 15 ± 3 | 87.8 to 89.2 | – | – | – | Cc1ccc2c(n1)C(NCc1ccccn1)CCC2 (centres unmarked) [Compound 3b, 2-methyl-N-(pyridin-2-ylmethyl)-5,6,7,8-tetrahydroquinolin-8-amine] | – | > 100 | > 100 | > 100 | –
– | – | – | – | – | – | – | – | – | – | CN1C(=O)c2cc(C(N)=O)nc3c(N)c(Cl)c(N)c1c23 [Compound 4, ammosamide B] | – | – | – | – | 0.061
– | – | – | 62 ± 8 | 25 ± 5 | 35 ± 10 | 89.5 to 90.8 | – | – | – | Cc1ccc(O)c(CNC2CCCc3ccc(C)nc32)c1 (racemic) [Compound 2b, 4-methyl-2-(((2-methyl-5,6,7,8-tetrahydroquinolin-8-yl)amino)methyl)phenol] | – | 23 ± 4 | 75 ± 11 | 60 ± 2 | –
– | – | – | > 100 | > 100 | > 100 | 90.3 to 92.2 | – | – | – | Cc1ccc2c(n1)C(NCc1cn(C)cn1)CCC2 (centres unmarked) [Compound 4b, 2-methyl-N-((1-methyl-1H-imidazol-4-yl)methyl)-5,6,7,8-tetrahydroquinolin-8-amine] | – | > 100 | > 100 | 89 ± 2 | –
– | – | – | – | – | – | – | > 20 | 11.5 ± 2.6 | > 20 | Cc1ccc(O)c(CN[C@H]2CCCc3ccc(C)nc32)c1 [(S)-2b, 4-methyl-2-(((2-methyl-5,6,7,8-tetrahydroquinolin-8-yl)amino)methyl)phenol] | inactive | – | – | – | –
